In paper PMC9445017, “Molecular basis for polysaccharide recognition and modulated ATP hydrolysis by the O antigen ABC transporter” (Nature Communications, 2022):
pKd: −log10 of the molar value.

Experiments:
WzmWzt (full-length) = biological target: T1, WzmWzt (full-length) (Aquifex aeolicus, UniProt O67181); test: NADH-coupled ATPase assay; format: biochemical; details: 1 mM ATP, 27 °C; CBD ligand, non-physiologically high concentration
T1 construct: gene abcT4; full-length wild-type transporter, Wzm2Wzt2; His-tagged (WzmWzt-His), purified as previously described; in lipid nanodiscs or DDM micelles; with O antigen ABC transporter permease Wzm (Transport permease protein)
T1 sequence (O67181 entry or part of it): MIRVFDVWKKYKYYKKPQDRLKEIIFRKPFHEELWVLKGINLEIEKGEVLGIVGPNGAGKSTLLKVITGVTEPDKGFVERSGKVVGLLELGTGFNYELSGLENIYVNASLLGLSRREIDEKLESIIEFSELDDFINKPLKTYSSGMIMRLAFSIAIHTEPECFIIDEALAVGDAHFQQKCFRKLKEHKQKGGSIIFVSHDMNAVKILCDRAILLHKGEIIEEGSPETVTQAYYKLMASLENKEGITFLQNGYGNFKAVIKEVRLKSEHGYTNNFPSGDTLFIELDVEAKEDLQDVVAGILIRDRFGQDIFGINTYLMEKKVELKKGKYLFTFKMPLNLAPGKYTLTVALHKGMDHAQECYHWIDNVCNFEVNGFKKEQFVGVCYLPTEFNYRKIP
T1 sequence (O67182 entry or part of it, further chain): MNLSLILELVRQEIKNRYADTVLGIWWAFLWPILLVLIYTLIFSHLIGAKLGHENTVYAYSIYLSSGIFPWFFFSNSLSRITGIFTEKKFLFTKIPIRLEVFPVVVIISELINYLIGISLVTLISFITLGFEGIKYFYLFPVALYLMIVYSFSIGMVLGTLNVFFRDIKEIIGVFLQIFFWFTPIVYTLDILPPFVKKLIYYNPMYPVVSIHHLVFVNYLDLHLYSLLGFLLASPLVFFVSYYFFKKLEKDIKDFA

[1] = biological target: T2, Wzt-CBD (also Wzt-CBM, WztC) (Aquifex aeolicus, UniProt O67181); test: isothermal titration calorimetry; format: binding; details: 50 mM HEPES pH 8.0, 25 °C; 1:1 per CBD monomer; read-out: affinity
T2 construct: gene abcT4; N-terminal His6-TEV tag removed; E. coli C43(DE3); domain-swapped dimer
T2 sequence (O67181 entry or part of it): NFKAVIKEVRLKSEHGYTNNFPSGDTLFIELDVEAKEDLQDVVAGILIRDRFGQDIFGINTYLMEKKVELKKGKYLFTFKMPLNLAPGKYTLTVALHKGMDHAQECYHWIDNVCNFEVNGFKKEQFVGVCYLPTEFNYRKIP

% increase in ATPase activity at high concentration (WzmWzt (full-length)): ~ 50%
pKd [1]: ~3.63
SMILES: CO[C@H]1[C@H](O)[C@@H](CO)OC(O)[C@H]1O (stereo partly drawn) [3-O-methyl-D-mannose]
